B1: TNFα: recombinant mouse TNFα purchased from Sigma (protein)
chain: LRSSSQNSSDKPVAHVVANHQVEEQLEWLSQRANALLANGMDLKDNQLVVPADGLYLVYSQVLFKGQGCPDYVLLTHTVSRFAISYQEKVNLLSAVKSPCPKDTPEGAELKPWYEPIYLGGVFQLEKGDQLSAEVNLPKYLDFAESGQVYFGVIAL
B2: IFN-γ: cytokine IFN-γ used to treat MΦ-cTLR4 cells (protein, UniProt P01580 23-155, looked up)
Interferon gamma: HGTVIESLESLNNYFNSSGIDVEEKSLFLDIWRNWQKDGDMKILQSQIISFYLRLFEVLKDNQAISNNISVIESHLITTFFSNSKAKKDAFMSIAKFEVNNPQVQRQAFNELIRVVHQLLPESSLRKRKRSRC

Experiments:
[1] = test system: MΦ-cTLR4 cells in Matrigel plug; test: In vivo Matrigel plug with MΦ-cTLR4 cells; set-up: species or system BALB/c mice; settings: 14 day; CID drug 2 mg/kg intraperitoneal every other day; s.c. Matrigel plug
Description: Four groups of 4 week old female BALB/c mice (total of 16 mice) were used in this in vivo study. The four groups consisted of: 7 day non-treated mice, 7 day CID-treated mice, 14 day non-treated mice, and 14 day CID-treated mice. At day of injection, pre-plated MΦ-cTLR4 cells were lifted off and counted. 0.5×10^6 cells were s.c. injected mixed in with Matrigel into the right back dorsal area of the mouse. Before placing mouse back in cage, mice were injected with the first intraperitoneal CID drug dose (2 mg/kg mouse weight). Treatment groups were given CID drug injections every other day during the course of the experiment (FIG. 20).

MΦ-cTLR4 cells [2] = test: ELISA for VEGF-A in MΦ-cTLR4 medium; format: cell-based, murine; settings: for VEGF expression compared to controls: single treatment (FIG. 22A)
Description: In order to determine if the MΦ-cTLR4 cells were expressing the key angiogenic molecule VEGF-A, an ELISA was performed to test for VEGF-A levels in MΦ-cTLR4 medium following various treatments (FIG. 22A). […] Since studies have shown human and rat MΦs express increased VEGF with IFN-γ treatment, the response was also tested with this factor.

[3] = test system: MΦ-cTLR4 cells co-cultured with rat aortic ECs (RAECs); test: Co-culture tube formation (angiogenesis) assay; format: cell-based; settings: CID 50 nM or LPS 100 ng/mL added to the medium
Source text: Untreated MΦ-cTLR4 cells co-cultured with rat aortic ECs (RAECs), with no added factors to the medium, had the least amount of isolated segments, the least amount of branches, and the most amount of branching interval.

bEnd.3 endothelial cells = test: Endothelial cell activation by MΦ-cTLR4 conditioned media (flow cytometry for VCAM-1 and ICAM-1); format: cell-based, mouse; settings: media from MΦ-cTLR4 treated 6 h (TNFα 20 ng/mL, CID 50 nM); bEnd.3 incubated 12 h
Description: MΦ-cTRL4 conditioned media, following a 6 hour treatment in 6-well plates (1×10^6 cells/well), was transferred to plated bEnd.3 cells in a 12-well plate (0.2×10^6 cells/well). Before media transfer, TNFα neutralizing and IgG isotype antibody (1 μg/mL) were incubated in media for 15 minutes. Media was then added to bEnd.3 cells for 12 hours. Following incubation, bEnd.3 cells were trypsinized and stained for ICAM-1 and VCAM-1. Cell cytometry was performed on a FACSCanto II Cell Analyzer (BD Biosciences) equipped with 488 nm and 647 nm lasers. Typically, 10,000 cells were analyzed per sample. Experiments were repeated at least three times. Non-specific staining was evaluated using a monoclonal antibody for IgG2b and IgG2a (eBioscience).

[4] = test system: ERK1/2 phosphorylation in MΦ-cTLR4 cells; test: Western blot for p-ERK and total ERK (MyD88-dependent pathway); format: cell-based, murine; settings: 0 to 60 minutes; CID 50 nM, LPS 100 ng/mL
Description: (§1) Protein from RAW264.7, MΦ-T2A (vector control cells), and MΦ-cTLR4 cell monolayers were extracted by lysis in Laemmli buffer containing 1× Halt Protease Inhibitor cocktail (Thermo Scientific). Following lysis, samples were boiled and protein concentration was determined by performing a BCA assay from Thermo Scientific. Samples (10-30 μg of lysates) were run on 4-20% Mini-PROTEAN® TGX precast polyacrylamide gels (Bio-Rad). Protein from gels were transferred onto PVDF membranes and probed with the appropriate primary antibody overnight. Membranes were washed between each antibody incubation and subsequently probed with the appropriate HRP-conjugated secondary antibody (Life Technologies). The Clarity Western ECL Substrate (Bio-Rad) was used to detect bands.
Following LPS stimulation and subsequent TNFα production, the TLR4 pathway leads to activation of NF-κB and the three MAPK pathways through the MyD88-dependent pathway. Both NF-κB and MAPK pathways directly control the transcription of the IL-6 and iNOS inflammatory genes, as well as control the mRNA stability of those transcripts. For the activated MΦ-cTLR4 cells, ERK1/2 phosphorylation is expected if the MyD88 dependent pathway and subsequent downstream TRAF6 activation has occurred. […]

MΦ-cTLR4 cells [5] = test: Cytokine profile (ELISA of supernatants) of MΦ-cTLR4 cells; format: cell-based, murine
Description: We tested IL-6 and TNFα concentrations in supernatants of transduced RAW264.7 cells in vitro. Briefly, MΦ-cTLR4 cells (1×106) were plated in each well of a 6-well plate and treated with vehicle (100% EtOH), LPS (100 ng/mL), CID drug (50 nM), or left untreated in DMEM without serum. Supernatants were collected and tested using the mouse IL-6 ELISA Ready-SET-Go! and the mouse TNFα ELISA Ready-SET-Go! Kits (eBioscience) according to the manufacturer's instructions. Plates were read at 450 nm with a 570 nm wavelength subtraction, normalized to standard solutions, and concentrations (pg/mL) were calculated.

[6] = test system: NF-κB promoter in MΦ-cTLR4 cells; test: Dual-Luciferase NF-κB reporter assay; format: cell-based, murine; settings: CID 50 nM, 4 hours; compared to vehicle
Description: Two hundred thousand cells/well were seeded in 24-well plates. The following day each well was transfected with a total of 0.8 μg plasmid DNA, which consisted of a 20:1 ratio of pBllX-LUC (NFκB reporter construct):pRL (Renilla luciferase construct). The promoterless pGL4.10 vector was also transfected in a 20:1 ratio of pGL4.10:pRL, as a control. Transfections of each well were performed with 2 μL Lipofectamine 2000 (Invitrogen). The following morning transfection reagents were replaced with fresh serum-free medium and treated with either vehicle (100% EtOH) or CID drug (50 nM) for 4 hours. Cell lysate was harvested and luciferase activity was measured using a Dual-Luciferase® reporter assay kit (Promega) according to manufacturer's instructions. All groups were normalized to Renilla luciferase.

MΦ-cTLR4 cells [7] = test: Western blot for iNOS in MΦ-cTLR4 cells; format: cell-based, murine; settings: 24 h treatment; CID 50 nM, LPS 100 ng/mL
Description: as §1

[8] = test system: IRF3 phosphorylation in MΦ-cTLR4 cells; test: Western blot for p-IRF3 and total IRF3 (MyD88-independent pathway); format: cell-based, murine; settings: CID 50 nM, LPS 100 ng/mL; compared to vehicle
Description: as §1
To determine if the MΦ-cTLR4 cells were signaling through the MyD88-independent pathway, we tested for phosphorylated IRF3. […] The IRF3 phosphorylation of the CID- and LPS-treated MΦ-cTLR4 cells starts to decrease following the 2 hour timepoint and subsequently reaches similar levels as vehicle at the 6 and 12 hour timepoints.

[9] = 24 h treatment, CID drug 50 nM, compared to uninduced controls

Molecule	co-localization of GFP MΦ-cTLR4 cells and iNOS regions in plug [1]	VEGF expression compared to controls (MΦ-cTLR4 cells [2])	branching interval vs untreated co-cultures [3]	isolated segments [3]	number of branches vs untreated co-cultures [3]	number of master segments compared to the control [3]	EC positive for ICAM-1 (bEnd.3 endothelial cells) [%]	EC positive for VCAM-1 (bEnd.3 endothelial cells) [%]	ERK1/2 phosphorylation (p-ERK/total ERK ratio relative to zero timepoint) [4]	time to upregulation of key pro-inflammatory markers after CID drug addition (MΦ-cTLR4 cells [5]) [h]	IL-6 levels (MΦ-cTLR4 cells [5]; [9])	TNFα levels (MΦ-cTLR4 cells [5]; [9])	time IL-6 levels stayed activated (MΦ-cTLR4 cells [5]; constant CID drug (50 nM) in media) [h]	time elevated levels of TNFα, IL-6 and iNOS are maintained (MΦ-cTLR4 cells [5]; constant CID drug (50 nM) in media, changed every 24 h)	dose producing the maximum activation of MΦ-cTLR4 cells (IL-6 ELISA) (MΦ-cTLR4 cells [5]; titration 50 nM-250 nM, 24 h treatment)	NF-κB promoter activation (luciferase activity normalized to Renilla) [6]	iNOS expression (130 kDa band) (MΦ-cTLR4 cells [7])	time of activation peak of p-IRF3/total IRF3 ratio [8] [h]	VEGF compared to the control, IFN-γ alone or in cocktail (MΦ-cTLR4 cells [2]; IFN-γ alone or cocktail with CID or LPS (FIG. 22B))
CC[C@H](C(=O)N1CCCC[C@H]1C(=O)O[C@H](CCc1ccc(OC)c(OC)c1)c1cccc(OCC(=O)NCC(CNC(=O)COc2cccc([C@@H](CCc3ccc(OC)c(OC)c3)OC(=O)[C@@H]3CCCCN3C(=O)[C@@H](CC)c3cc(OC)c(OC)c(OC)c3)c2)CN(C)C)c1)c1cc(OC)c(OC)c(OC)c1 [CID drug, AP20187]	occurrences of GFP/iNOS co-localization	significantly decreased amounts of VEGF	smaller branching interval	slightly more isolated segments than the untreated group	much more branches	not significantly different	64.4	93.7	upregulation of ERK1/2 phosphorylation at the 5 minute timepoint	6	increased	increased	72	at least 48 hours	at least 50 nM	increased NF-κB promoter activation	much lower intensity than the LPS-treated cells	2	
lipopolysaccharides [LPS]		significantly decreased amounts of VEGF	smaller branching interval	highest number of isolated segments	much more branches	not significantly different											substantial increase in iNOS expression	2	
B1							57.2	93.5											
B2																			significant decrease in VEGF
